Series [1] in a line: Pharmacokinetics (plasma and CSF) in infected monkeys after last DB844 dose. The conditions noted are these: for Tmax: po.
Series [2] in a line: Metabolism of DB844 in vervet monkey liver microsomes. It is filed as in vitro ADME. As for the experimental part:
The metabolism of DB844 was investigated using liver microsomes, prepared from a male vervet monkey by XenoTech, LLC (Lenexa, KS), in the presence of NADPH as described previously with modifications. Briefly, incubation mixtures (1 ml at pH7.4, in triplicate) contained 10 µM DB844 and 0.2 mg/ml monkey liver microsomes. After a 5-min equilibration period at 37°C, reactions were initiated with the addition of NADPH. Aliquots (50 µl) of the reaction mixtures were removed at 0, 5, 10, 15, 30, 60, 90, and 120 min and mixed with 25 µl of ice-cold acetonitrile. The mixtures were centrifuged (10,000×g for 5 min at 4°C) and the supernatants were analyzed by HPLC/UV using the same method as previously described for DB289 [22]. […] DB844 and metabolites were quantified using a single-concentration calibration curve generated using synthetic standards.
(Liver microsomes are a subcellular fraction often used to study metabolism.)

On the set-up of series [3]: method as in PMID 17360833. The conditions noted are these: dosed orally to cynomolgus monkey at 5 mg/kg; cited from earlier work.
The next series relates to 2nd stage HAT. Further details: method as in PMID 19620327, PMID 19064893. The conditions noted are these: cited from earlier work.
On the set-up of series [4]: method as in PMID 20721830. As to conditions: extended phase I clinical trial, 14 day dose regimen of 100 mg bid; cited from earlier work.
The subject of series [5] is Trypanosoma brucei rhodesiense KETRI 2537. Also noted: method as in earlier work. As to conditions: treatment initiated at 28 DPI; unpublished TRC-KARI data; cited from earlier work.

Entries after “also recorded” stand apart in the source; their conditions may differ. Some results are limits rather than exact numbers.

Data on 4 compounds can be found in paper PMC3404106, “Pharmacology of DB844, an Orally Active aza Analogue of Pafuramidine, in a Monkey Model of Second Stage Human African Trypanosomiasis” (PLoS Neglected Tropical Diseases, 2012).

Regarding `N=C(N)c1ccc(-c2ccc(-c3ccc(C(=N)N)cn3)o2)cc1` [DB820], the “sporadic CSF concentration” value in series [1] (2/7 monkeys (571 and 624), between 24 and 96 h post dose) was under 4 nM. Also, the “detection in the CSF” value in series [1] (after last dose of DB844 6 mg/kg×14 days, samples at 1, 24, 96, 168 h and weekly) was “not detected”. In series [1] (monkey, in vivo, 6 mg/kg), this compound displayed a concentration at 28 days of 35 nM. Moreover, the time of peak concentration (Tmax) was 4.08 h in series [1] (monkey, in vivo, 6 mg/kg, Tmax, plasma, after the 14th oral dose of DB844 at 6 mg/kg, n = 7, median, analyte = label) and 4 h in series [1] (monkey, in vivo, 6 mg/kg, time of peak plasma concentration, after the last (14th) dose of DB844 at 6 mg/kg, analyte = label). The compound further gave an AUClast in series [1] (plasma, after the 14th oral dose of DB844 at 6 mg/kg, n = 7, geometric mean, analyte = label) of 1400 nmol·days/L.
For `CO/N=C(/N)c1ccc(-c2ccc(-c3ccc(/C(N)=N/O)cc3)o2)nc1` [M1B], the “relative metabolite concentration in the drug/liver microsome mixture” value in series [2] was “highest concentrations during the initial 20 minutes”.
As to `CONC(=N)c1ccc(-c2ccc(-c3ccc(C(=N)NOC)cc3)o2)cc1` [pafuramidine, 2,5-bis(4-amidinophenyl)furan-bis-O-methylamidoxime], the Cmax in series [3] is 30 to 35 nM. For the same compound, in the series on 2nd stage HAT, the “cure against 2nd stage HAT in animal models” value is on record as “did not achieve cure”. For the same compound, the “subjects who developed delayed renal insufficiency” value in series [4] is listed as 6%. The “cure in the vervet monkey model of CNS stage HAT” value in series [5] is “non-curative; also recorded: did not cure any monkey”.
In the case of `N=C(N)c1ccc(OCCCCCOc2ccc(C(=N)N)cc2)cc1` [pentamidine], the “cure against 2nd stage HAT in animal models” value with 2nd stage HAT is “did not achieve cure”. The “cure in the vervet monkey model of CNS stage HAT” value in series [5] is given as “non-curative; also recorded: did not cure any monkey”.

Broadly, the Tmax is the time at which the peak concentration occurs. One may read the Cmax as the maximum level reached in the sampled fluid or tissue.
